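These data come from cells grown in 96-well plates and exposed to compound for 48 hours at five concentrations. TGI: total growth inhibition.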
System: P388 leukemia
Assay: NCI tumour cell line growth inhibition, 48 h

CN1CCN(c2ccc3nc(-c4ccc5nc(-c6ccc(O)cc6)[nH]c5c4)[nH]c3c2)CC1
TGI: 439 µM

Reference: PubChem BioAssay (NCI)
